Source: the NIST ThermoML archive (doi:10.1021/je0501944)

Key:
[1] = 298.15 K, 101.33 kPa, Liquid; for viscosity: Capillary tube (Ostwald / Ubbelohde) method
[2] = xn = mol fraction of the nth substance listed; settings: 298.15 K, 101 kPa, Liquid; for viscosity: Capillary tube (Ostwald / Ubbelohde) method

C1CCCCC1 [cyclohexane]
[1]
Settings | mass density [kg/m3] | viscosity [mPa·s]
– | 773.93 | 0.894

C1CCCCC1 [cyclohexane] + Cc1ccccc1
[2]
Settings | mass density [kg/m3] | viscosity [mPa·s]
x2 = 0.0407 | 776.48 | 0.8158
x2 = 0.2018 | 788.44 | 0.7133
x2 = 0.2798 | 794.63 | 0.6687
x2 = 0.3613 | 801.33 | 0.6305
x2 = 0.4416 | 808.17 | 0.6081
x2 = 0.6003 | 822.4 | 0.566
x2 = 0.6784 | 829.75 | 0.5534
x2 = 0.7615 | 837.82 | 0.5429
x2 = 0.8396 | 845.63 | 0.5395
x2 = 0.9202 | 853.94 | 0.5393

CCCCC [pentane]
[1]
Settings | mass density [kg/m3] | viscosity [mPa·s]
– | 621.32 | 0.219

CCCCC [pentane] + C1CCCCC1
[2]
Settings | mass density [kg/m3] | viscosity [mPa·s]
x2 = 0.0437 | 627.56 | 0.2065
x2 = 0.2145 | 653.09 | 0.2555
x2 = 0.2955 | 665.44 | 0.2828
x2 = 0.3753 | 677.59 | 0.3128
x2 = 0.4595 | 690.43 | 0.3503
x2 = 0.6125 | 713.75 | 0.4425
x2 = 0.7048 | 727.81 | 0.5146
x2 = 0.7791 | 739.14 | 0.5847
x2 = 0.8514 | 750.15 | 0.6591
x2 = 0.9254 | 761.85 | 0.7641

CCCCC [pentane] + Cc1ccccc1
[2]
Settings | mass density [kg/m3] | viscosity [mPa·s]
x2 = 0.0415 | 630.69 | 0.2029
x2 = 0.2011 | 668.27 | 0.2231
x2 = 0.2799 | 687.21 | 0.2386
x2 = 0.3647 | 707.61 | 0.2592
x2 = 0.4341 | 724.3 | 0.2786
x2 = 0.6011 | 764.45 | 0.3367
x2 = 0.6821 | 783.95 | 0.3688
x2 = 0.7502 | 800.32 | 0.3999
x2 = 0.8213 | 817.43 | 0.4371
x2 = 0.9137 | 840.19 | 0.4891

Cc1ccccc1 [toluene]
[1]
Settings | mass density [kg/m3] | viscosity [mPa·s]
– | 862.19 | 0.552
